Values quoted from earlier work in patent US20090226374A1, “ANAPHYLATOXINS FOR DETECTING CLINICAL CONDITIONS” (Health Aide, Inc., priority 2003, published 2009).
Like-named read-outs stand apart in the source and are kept apart here. Marks after values point to notes of the source that are not given here. Where no end group is shown, it is not given here. [ ]: non-standard residue; d: D form. The star is where a group is joined. Fmoc = O=C(OCC1c2ccccc2-c2ccccc21)*; Ahx = NCCCCCC(=O)O

How the values were obtained:
[1] = assay not given
guinea pig platelet = guinea pig platelet aggregation
[2] = natural factor C3a (1-77) = 100
guinea pig ileum = settings: for Relative Act. %: natural human C3a (1-77) = 100; for Relative Act. % / Relative molar activity (%): guinea pig ileum contraction; for Relative molar activity (%): pentapeptide L-G-L-A-R (C3a 73-77) = 100
[3] = natural C3a of each species; human C3a = 100

Fmoc-R-A-A-R-L-G-L-A-R (Fmoc-RAARLGLAR) [Peptide D5]
Potency relative to C3a (57-77), % ([1]; Table 1F): 61%

W-R-R-R-Y-A-S-K-L-G-L-A-R (WRRRYASKLGLAR) [Peptide B14]
Potency relative to C3a (57-77), % (guinea pig platelet): 66%

R-Y-A-S-K-L-G-L-A-R (RYASKLGLAR) [Peptide B2]
Potency relative to C3a (57-77), % (guinea pig platelet): 7.0%

Fmoc-I-R-R--R-Y-A-S-K-L-G-L-A-R (Fmoc-IRRRYASKLGLAR) [Peptide B18]
Potency relative to C3a (57-77), % (guinea pig platelet): 50%

Fmoc-A-A-A-R-L-G-L-A-R (Fmoc-AAARLGLAR) [Peptide D1]
Potency relative to C3a (57-77), % ([1]; Table 1F): 66%

Ahx-Y-S-H-K-G-M-L-L-G-R ([Ahx]YSHKGMLLGR) [Peptide C8]
Potency relative to C3a (57-77), % ([1]; Table 1E): 0.4%

FmocW-R-R-R-Y-A-S-K-L-G-L-A-R (Fmoc-WRRRYASKLGLAR) [Peptide B20]
Potency relative to C3a (57-77), % (guinea pig platelet): 70%

H-Cys-Asn-Tyr-Ile-Thr-Glu-Leu-Arg-Arg-Gln-His-Ala-Arg-Ala-Ser-His-Leu-Gly-Leu-Ala-Arg-OH (H-CNYITELRRQHARASHLGLAR-OH) [C3a-(57-77)]
Relative molar activity (%) [2]: >20* %

Fmoc-Ahx-Y-A-S-K-L-G-L-A-R ({Fmoc-Ahx}-YASKLGLAR) [Peptide C3]
Potency relative to C3a (57-77), % ([1]; Table 1E): 22%

L-Q-L-A-R [Peptide 12]
Relative Act. % (guinea pig ileum): <0.003%
Relative molar activity (%) (guinea pig ileum): <5.5%

W-W-G-G-Y-R-A-S-A-L-G-L-A-R (WWGGYRASALGLAR) [Peptide D10]
Potency relative to C3a (57-77), % ([1]; Table 1F): 181%

Fmoc-A-R-A-A-L-G-L-A-R (Fmoc-ARAALGLAR) [Peptide D3]
Potency relative to C3a (57-77), % ([1]; Table 1F): 37%

R-R-R-Y-A-S-K-L-G-L-A-R (RRRYASKLGLAR) [Peptide B13]
Potency relative to C3a (57-77), % (guinea pig platelet): 50%

V-G-L-A-R [Peptide 5]
Relative Act. % (guinea pig ileum): 0.2%
Relative molar activity (%) (guinea pig ileum): 90%

I-G-G-G-Y-R-K-S-A-L-G-L-A-R (IGGGYRKSALGLAR) [Peptide B11]
Potency relative to C3a (57-77), % (guinea pig platelet): 16%

L-G-L-E-R [Peptide 23]
Relative molar activity (%) (guinea pig ileum): <2.6%

Fmoc-W-W-R-R-R-Y-A-S-K-L-G-L-A-R (Fmoc-WWRRRYASKLGLAR) [Peptide B19]
Potency relative to C3a (57-77), % (guinea pig platelet): 53%

H-Ala-Ser-His-Leu-Gly-Leu-Ala-Arg-OH (H-ASHLGLAR-OH) [C3a-(70-77)]
Relative molar activity (%) [2]: 2.0%

L-E-L-A-R [Peptide 13]
Relative Act. % (guinea pig ileum): 2.0%
Relative molar activity (%) (guinea pig ileum): <2.4%

L-S-L-A-R [Peptide 9]
Relative Act. % (guinea pig ileum): 2.0%
Relative molar activity (%) (guinea pig ileum): 55%

Ahx-Y-A-S-K-L-G-L-A-R ([Ahx]YASKLGLAR) [Peptide C2]
Potency relative to C3a (57-77), % ([1]; Table 1E): 13%

L-G-L-Q-R [Peptide 20]
Relative molar activity (%) (guinea pig ileum): 2.8%

Fmoc-A-A-R-A-L-G-L-A-R (Fmoc-AARALGLAR) [Peptide D2]
Potency relative to C3a (57-77), % ([1]; Table 1F): 41%

W-Ahx-Y-S-H-K-G-M-L-L-G-R (W[Ahx]YSHKGMLLGR) [Peptide C10]
Potency relative to C3a (57-77), % ([1]; Table 1E): 1.2%

W-Ahx-Y-A-S-K-L-G-L-A-R (W[Ahx]YASKLGLAR) [Peptide C4]
Potency relative to C3a (57-77), % ([1]; Table 1E): 22%

Fmoc-R-R-Y-R-A-S-K-L-G-L-A-R (Fmoc-RRYRASKLGLAR) [Peptide D6]
Potency relative to C3a (57-77), % ([1]; Table 1F): 176%

Y-S-H-K-G-M-L-L-G-R (YSHKGMLLGR) [Peptide C7]
Potency relative to C3a (57-77), % ([1]; Table 1E): 0.5%

L-G-I-A-R [Peptide 14]
Relative Act. % (guinea pig ileum): 0.8%
Relative molar activity (%) (guinea pig ileum): 10%

W-W-R-R-R-Y-A-S-K-L-G-L-A-R (WWRRRYASKLGLAR) [Peptide B16]
Potency relative to C3a (57-77), % (guinea pig platelet): 296%

A-G-L-A-R [Peptide 7]
Relative Act. % (guinea pig ileum): <0.001%
Relative molar activity (%) (guinea pig ileum): 20%

L-A-L-A-R [Peptide 8]
Relative Act. % (guinea pig ileum): 0.59%
Relative molar activity (%) (guinea pig ileum): 270%

L-V-L-A-R [Peptide 10]
Relative Act. % (guinea pig ileum): 1.2%
Relative molar activity (%) (guinea pig ileum): 10%

W-W-G-G-Y-R-A-S-K-L-G-L-A-R (WWGGYRASKLGLAR) [Peptide B6]
Potency relative to C3a (57-77), % (guinea pig platelet): 259%

I-I-G-G-Y-R-A-S-K-L-G-L-A-R (IIGGYRASKLGLAR) [Peptide B8]
Potency relative to C3a (57-77), % (guinea pig platelet): 50%

W-I-G-G-Y-R-A-S-K-L-G-L-A-R (WIGGYRASKLGLAR) [Peptide B7]
Potency relative to C3a (57-77), % (guinea pig platelet): 118%

F-G-L-A-R [Peptide 3]
Relative Act. % (guinea pig ileum): 1.1%
Relative molar activity (%) (guinea pig ileum): 140%

H-Arg-Gln-His-Ala-Arg-Ala-Ser-His-Leu-Gly-Leu-Ala-Arg-OH (H-RQHARASHLGLAR-OH) [C3a-(65-77)]
Relative molar activity (%) [2]: 2.5%

I-R-R-R-Y-A-S-K-L-G-L-A-R (IRRRYASKLGLAR) [Peptide B15]
Potency relative to C3a (57-77), % (guinea pig platelet): 99%

W-W-G-G-Y-R-P-S-A-L-G-L-A-R (WWGGYRPSALGLAR) [Peptide D12]
Potency relative to C3a (57-77), % ([1]; Table 1F): 252%

L-G-L-P-R [Peptide 19]
Relative molar activity (%) (guinea pig ileum): 3.5%

Fmoc-Y-R-A-S-K-L-G-L-A-R (Fmoc-YRASKLGLAR) [Peptide B4]
Potency relative to C3a (57-77), % (guinea pig platelet): 121%

Y-A-S-K-L-G-L-A-R (YASKLGLAR) [Peptide C1]
Potency relative to C3a (57-77), % ([1]; Table 1E): 3.4%

Fmoc-R-A-A-A-L-G-L-A-R (Fmoc-RAAALGLAR) [Peptide D4]
Potency relative to C3a (57-77), % ([1]; Table 1F): 79%

Fmoc-K-K-Y-R-A-S-K-L-G-L-A-R (Fmoc-KKYRASKLGLAR) [Peptide D7]
Potency relative to C3a (57-77), % ([1]; Table 1F): 279%

Fmoc-G-G-Y-R-A-S-K-L-G-L-A-R (Fmoc-GGYRASKLGLAR) [Peptide D8]
Potency relative to C3a (57-77), % ([1]; Table 1F): 227%

Fmoc-Ahx-Y-R-A-S-K-L-G-L-A-R ({Fmoc-Ahx}-YRASKLGLAR) [Peptide C5]
Potency relative to C3a (57-77), % ([1]; Table 1E): 112%
Potency relative to C3a (57-77), % ([1]; Table 1F): 112%

L-G-V-A-R [Peptide 17]
Relative Act. % (guinea pig ileum): <0.005%
Relative molar activity (%) (guinea pig ileum): <1.1%

W-W-G-G-Y-R-K-S-A-L-G-L-A-R (WWGGYRKSALGLAR) [Peptide D11]
Potency relative to C3a (57-77), % ([1]; Table 1F): 259%

W-W-G-G-Y-R-a-S-A-L-G-L-A-R (WWGGYR[dA]SALGLAR) [Peptide D13]
Potency relative to C3a (57-77), % ([1]; Table 1F): 118%

Y-G-L-A-R [Peptide 2]
Relative Act. % (guinea pig ileum): 2.3%
Relative molar activity (%) (guinea pig ileum): 160%

Fmoc-R-R-R-Y-A-S-K-L-G-L-A-R (Fmoc-RRRYASKLGLAR) [Peptide B17]
Potency relative to C3a (57-77), % (guinea pig platelet): 261%

M-G-L-A-R [Peptide 6]
Relative Act. % (guinea pig ileum): 0.005%
Relative molar activity (%) (guinea pig ileum): 50%

R-R-Y-A-S-K-L-G-L-A-R (RRYASKLGLAR) [Peptide B12]
Potency relative to C3a (57-77), % (guinea pig platelet): 18%

L-G-A-A-R [Peptide Code 12]
Relative molar activity (%) (guinea pig ileum): <1.4%

L-G-L-G-R [Peptide 22]
Relative molar activity (%) (guinea pig ileum): <5.8%

W-G-G-Y-R-A-S-K-L-G-L-A-R (WGGYRASKLGLAR) [Peptide B5]
Potency relative to C3a (57-77), % (guinea pig platelet): 99%

W-W-Ahx-Y-R-A-S-K-L-G-L-A-R (WW[Ahx]YRASKLGLAR) [Peptide C6]
Potency relative to C3a (57-77), % ([1]; Table 1E): 603%

I-I-G-G-Y-R-K-S-A-L-G-L-A-R (IIGGYRKSALGLAR) [Peptide B9]
Potency relative to C3a (57-77), % (guinea pig platelet): 37%

Y-R-A-S-K-L-G-L-A-R (YRASKLGLAR) [Peptide B3]
Potency relative to C3a (57-77), % (guinea pig platelet): 55%

G-I-G-G-Y-R-K-S-A-L-G-L-A-R (GIGGYRKSALGLAR) [Peptide B10]
Potency relative to C3a (57-77), % (guinea pig platelet): 41%

L-G-L-S-R [Peptide 21]
Relative molar activity (%) (guinea pig ileum): 0.7%

H-Trp-Trp-Gly-Lys-Lys-Tyr-Arg-Ala-Ser-Lys-Leu-Gly-Leu-Ala-Arg-OH (H-WWGKKYRASKLGLAR-OH) [Peptide E7]
Relative molar activity (%) [2]: >100** %

C3a (1-77): Natural human C3a anaphylatoxin (1-77), the natural factor
Relative molar activity (%) [2]: 100%
Potency % [3]: 100%
Relative Act. % (guinea pig ileum): 100%

L-G-F-A-R [Peptide 16]
Relative Act. % (guinea pig ileum): 1.0%
Relative molar activity (%) (guinea pig ileum): <1.5%

L-L-L-A-R [Peptide 11]
Relative Act. % (guinea pig ileum): 0.023%
Relative molar activity (%) (guinea pig ileum): 10%

L-G-M-A-R [Peptide 15]
Relative Act. % (guinea pig ileum): 0.25%
Relative molar activity (%) (guinea pig ileum): 2.1%

Fmoc-Ahx-Y-S-H-K-G-M-L-L-G-R ({Fmoc-Ahx}-YSHKGMLLGR) [Peptide C9]
Potency relative to C3a (57-77), % ([1]; Table 1E): 0.8%

L-G-L-A-R (LGLAR) [Peptide Code 5]
Potency relative to C3a (57-77), % (guinea pig ileum; asterisk: based on guinea pig ileal assay): 0.2* %
Relative Act. % (guinea pig ileum): 5.9%
Relative molar activity (%) (guinea pig ileum): 100%

I-G-L-A-R [Peptide 4]
Relative Act. % (guinea pig ileum): 0.8%
Relative molar activity (%) (guinea pig ileum): 100%
